Data as given in PMC12333940, “A prometabolite strategy inhibits cardiometabolic disease in an ApoE^–/– murine model of atherosclerosis” (JCI Insight, 2025).
Values joined by “and” are separate entries in the source; they are usually repeats but may differ in a detail not shown here. Equal values may be shown once.

What was measured:
[1] = test system: NF-κB; assay: NF-κB-SEAP reporter assay in RAW-Blue cells after LPS; type: cell-based; conditions: for NFkB OD: then 200 ng/mL LPS 6 h
Method: NF-κB inhibition was assayed using the NF-κB-SEAP reporter cell line, RAW-Blue (InvivoGen, raw-sp). Cells were plated in round-bottom 96-well plates at 100,000 cells per well and cocultured with different concentrations of either NaBut or SerBut (0.15–12 mM) for 24 hours. After the addition of butyrate, cells were rinsed with phosphate buffered saline (PBS) and then stimulated with 200 ng/mL LPS in media for 6 hours.

[2] = test system: RAW 264.7 macrophages; assay: Flow cytometry of iNOS, CD80, CD86 in LPS-stimulated RAW 264.7; type: cell-based; conditions: for CD80+ % Live / CD86+ % Live / iNOS+ %Live: listed as SB
Method: RAW 264.7 (ATCC, TIB-71) macrophages were cultured at 37°C and 5% CO2 in DMEM (Gibco) supplemented with 1 mM HEPES, 1 mM sodium pyruvate, 10% FBS, and penicillin/streptomycin. Cells were plated in round-bottom 96-well plates at 100,000 cells per well and incubated with different concentrations of either NaBut or SerBut (0.15–12 mM) for 24 hours. […] The cell culture supernatant was collected and analyzed by LEGENDPlex to analyze the concentrations of cytokines (BioLegend). Cell phenotype was analyzed using flow cytometry (Cytek Aurora).
Flow cytometry was performed using a BD LSRFortessa or a Cytek Aurora full-spectrum cytometer. Data were analyzed using FlowJo version 10.8.0. eFluor 780 Viability Dye (Invitrogen, 65-0865-14) and antibodies against the following markers were used in the RAW 264.7 macrophage in vitro studies: CD86 (BV421; BD Horizon, catalog 564198), CD80 (BC650; BioLegend, clone 16-10A1, catalog 104732), and iNOS (APC; Invitrogen, clone CXNFT, catalog 17-5920-9). Live/Dead Blue (Invitrogen, 123105A) and antibodies against the following markers were used in the atherosclerosis mouse models: F4/80 (FITC; BioLegend, clone BM8, catalog 123108), CD3e (BV605; BD Biosciences, clone 145-2C11, catalog 563565), CD4 (BUV496; BD Biosciences, clone GK 1.5, catalog 612952), RORγt (AF647; BD Biosciences, clone Q31-378, catalog 562682), FoxP3 (AF488, BD Biosciences, clone MF23, catalog 560403), CCR2 (PE; R&D Systems, catalog FAB5538P), Ly6C (APC-Cy7; BioLegend, catalog 128026, clone HK1.4), Ly6G (AF488; BioLegend, catalog 127626), CD8 (APC-Cy7; BioLegend, clone 53-6.7, catalog 100714), CD45 (BUV805; Invitrogen, clone 30-F11, catalog 368-0451-82), and CD25 (PerCP-Cy5.5; BioLegend, clone PC61, catalog 102030).

[3] = Biodistribution of free butyrate in intestinal tissue and contents, C57BL/6 mice; type: in vivo
Excerpt: NaBut is limited in its translation by butyrate’s rapid consumption by colonocytes as a primary energy source in the distal gut. We propose that the enhanced biodistribution of free, active butyrate (following cleavage from serine) in SerBut-treated mice is due to small intestinal escape from the gut via amino acid transporters. To probe this hypothesis, we repeated the experiment and analyzed the biodistribution of free active butyrate in distinct sections of the intestinal tissue and the intestinal contents (Figure 2, K and L, and Supplemental Figure 2). Because neither ApoE^–/– nor HFD feeding would be expected to change amino acid receptor expression or function in the intestine, this was performed in C57BL/6 mice on a normal diet. […] We saw no increase in butyrate in the colon tissue (Figure 2P).
Samples were prepared and derivatized as described previously ([28]). […] The internal standard, 4-methylvaleric acid, was added.
Injection volume: 5.0 μL. Flow rate: 0.5 mL/min.

[4] = test system: ApoE^–/– mice on an HFD; assay: Flow cytometry of the aorta; type: in vivo, mouse; design: Aorta Flow CD11b+F480+ / Aorta Flow CD11b+Ly6Chi: unit not given here
Excerpt: SerBut water was pH adjusted using 10 M NaOH to a final pH of 7.4. […] After 6 weeks, mice were euthanized. […] The liver was harvested and part was homogenized in tissue protein extraction reagent buffer (Invitrogen, 78510) supplemented with protease inhibitor mini tablets (Thermo Fisher Scientific, PIA32955) for Western blotting and qPCR. […] The heart with the ascending and descending aorta to the diaphragm was harvested. The perivascular adipose tissue was carefully removed by microdissection while keeping the adventitia intact. […] After 45 minutes of digestion at 37°C with orbital shaking, aortas were passed through a 70 μm cell strainer, rinsed, pelleted, and plated into a U-bottom 96-well microplate for staining. […] Cells were washed in PBS supplemented with 2% FBS (FACS buffer) and stained for 30 minutes on ice with surface antibodies at a 1:200 dilution in a 1:1 mixture of FACS buffer and Brilliant Stain Buffer (BD Biosciences). Cells were washed with FACS buffer and PBS and fixed with 2% paraformaldehyde on ice for 20 minutes. Cells were washed twice with PBS and resuspended in FACS buffer. Precision count beads (BioLegend) were used to determine absolute cell counts. In this study, antibodies used included those against CD16/CD32 (BioLegend, clone 93, catalog 101302), CCR2 (PE; […] BD Biosciences, clone HL3, catalog 558079, BD Biosciences), […] (APC; […] BD Biosciences, clone 30-F11, catalog 564225), F4/80 (BUV496; BD Biosciences, clone T45-2342, catalog 750644), […].5; BioLegend, clone M5/114.15.2, catalog 107626), Ly-6C (APC-Cy7; […]

[5] = 4 mM, 12 Hour LPS stim after Butyrate treament
[6] = 4 mM, 12 hour LPS stim before butyrate treatment
[7] = 12 mM, 12 Hour LPS stim after Butyrate treament
[8] = 12 mM, 12 hour LPS stim before butyrate treatment

butyrate in the colon tissue ([3]; C57BL/6, normal diet): no increase
free butyrate in the intestinal contents ([3]; C57BL/6, normal diet): no significant changes
free butyrate in upper and lower small intestine and ileum tissue ([3]; compared with both PBS- and NaBut-treated mice): significantly more free, active butyrate
Compound: CCCC(=O)OC[C@H](N)C(=O)O [SerBut, O-butyryl-L-serine]
NFkB OD ([1]; 1.3 mM 24 h): 0.215 and 0.212 and 0.201 and 0.244 and 0.265 and 0.185
NFkB OD ([1]; 4 mM 24 h): 0.151 and 0.171 and 0.176 and 0.19 and 0.152
NFkB OD ([1]; 12 mM 24 h): 0.101 and 0.118 and 0.1 and 0.099 and 0.117 and 0.087
LPS-induced NF-κB activation ([1]; 12 mM, comparable to 1.3 mM NaBut): significantly suppressed LPS-induced NF-κB activation
CD80 MFI ([2]; 1.3 mM 24 h, then LPS 6 h): 22757 and 22379 and 22182 and 22697 and 22413
iNOS MFI ([2]; 1.3 mM 24 h, then LPS 6 h): 133476 and 131849 and 120651 and 126894 and 131328
CD80 MFI ([2]; 4 mM 24 h, then LPS 6 h): 22258 and 21750 and 21713 and 21977 and 22364 and 21487
iNOS MFI ([2]; 4 mM 24 h, then LPS 6 h): 123258 and 124792 and 115548 and 125159 and 131532 and 119298
CD80+ % Live [2, 5]: 20.6% and 26% and 25.2%
CD86+ % Live [2, 5]: 6.07% and 6.44% and 6.25%
iNOS+ %Live [2, 5]: 57.8% and 66.6% and 65.8%
CD80+ % Live [2, 6]: 45.8% and 43.1% and 44.5%
CD86+ % Live [2, 6]: 14.9% and 14.1% and 14.2%
iNOS+ %Live [2, 6]: 40.8% and 45.6% and 40.9%
iNOS and CD80 expression after LPS stimulation ([2]; 12 mM): significantly reduced
CD80 MFI ([2]; 12 mM 24 h, then 200 ng/mL LPS 6 h): 20826 and 21079 and 20195 and 20493 and 21214 and 20412
iNOS MFI ([2]; 12 mM 24 h, then LPS 6 h): 95330 and 101513 and 93052 and 99228 and 94381 and 96644
CD80+ % Live [2, 7]: 13.7% and 18.3% and 22.8%
CD86+ % Live [2, 7]: 6.99% and 8.29% and 9.22%
iNOS+ %Live [2, 7]: 26.5% and 43.9% and 50.9%
CD80+ % Live [2, 8]: 43.1% and 48% and 48.3%
CD86+ % Live [2, 8]: 14.5% and 13.5% and 15.9%
iNOS+ %Live [2, 8]: 31.3% and 49.4% and 36.1%
iNOS-suppressing capacity during longer LPS stimulations ([2]; high doses): maintained
free butyrate, Lower SI Contents ([3]; C57BL/6, normal chow, 3 hr after single gavage): 61.2227 µg/g and 52.7128 µg/g and 33.2508 µg/g and 35.0221 µg/g
CD11b^+Ly6C^hi monocytes and CD4^+ T cells in the aorta ([4]; 6 weeks, compared to water-treated controls): significantly reduced
CD45^+ total leukocytes, CD11b^+ monocytes and CCR2^+CD11b^+ monocytes in the aorta ([4]; 6 weeks, compared with control groups): significantly reduced
CD11c^+MHCII^hi dendritic cells, CD11b^+F480^+ macrophages and CD19^+ B cells in the aorta ([4]; 6 weeks, compared with water controls): significantly reduced
Aorta Flow B cell Count ([4]; individual mice): 84.4967 and 264.868 and 232.342 and 96.7663 and 273.748 and 383.747 and 234.355 and 234.323 and 206.881
Aorta Flow CD11b+F480+ ([4]; individual mice): 2.449 and 2.499 and 9.294 and 20.8231 and 9.359 and 5.0163 and 5.067 and 13.3899 and 12.3679
Aorta Flow CD11b+Ly6Chi ([4]; individual mice): 17.5571 and 39.2703 and 12.2741 and 5.622 and 12.2459 and 19.99 and 12.7788 and 6.124 and 10.5288
Aorta Flow T Cell Count ([4]; individual mice): 194.71 and 307.346 and 249.768 and 304.998 and 251.521 and 313.519 and 377.502 and 212.006 and 174.275
Aorta Flow CD11b+ Count ([4]; individual mice, experiment 2): 156.172 and 152.184 and 222.93 and 139.214 and 215.701 and 328.097 and 166.257 and 155.161 and 99.1918
Aorta Flow CD11b+CCR2+ ([4]; individual mice, experiment 2): 32.4838 and 20.9108 and 28.1725 and 25.737 and 41.3845 and 93.7421 and 32.3588 and 29.2332 and 22.0426
Aorta Flow CD45 Count ([4]; individual mice, experiment 2): 1030.73 and 928.206 and 1219.99 and 1078.62 and 1098.57 and 1777.3 and 1018.75 and 756.69 and 848.641
Aorta Flow CD11c+MHCIIhi ([4]; individual mice, cell count): 16.2419 and 24.3959 and 22.048 and 17.548 and 21.3193 and 22.8021 and 17.8532 and 22.4871 and 13.4705
